Results reported in patent US9708267B2, “Activators of human pyruvate kinase” (The United States of America, as represented by the …, priority 2010, dated 2017).
Read-outs that look alike come from different tables or passages of the source.

Target: hPK, M2 (Homo sapiens, UniProt P14618)
Experiment: luminescent pyruvate kinase-luciferase coupled assay (qHTS)
Format: biochemical
Settings: for activation at 57 µM: % activation at 57 μM of compound, read-out: hPK, M2 Max. Res.; for Emax: read-out: Max. Res.
Method: AC50 values were determined utilizing the luminescent pyruvate kinase-luciferase coupled assay (Inglese, J. et al, Quantitative high-throughput screening: a titration-based approach that efficiently identifies biological activities in large chemical libraries. Proc. Natl. Acad. Sci. U.S.A. 2006, 103, 11473-11478).
Luminescent Pyruvate Kinase-Luciferase Coupled Assay.
Production of a luminescent signal based on the generation of ATP by pyruvate kinase was determined by using the ATP-dependent enzyme firefly luciferase. Three μL of substrate mix (at r.t.) in assay buffer (50 mM imidazole pH 7.2, 50 mM KCl, 7 mM MgCl2, 0.01% tween 20, 0.05% BSA) was dispensed into Kalypsys (San Diego, Calif., USA) white solid bottom 1,536 well microtiter plates using a bottle-valve solenoid-based dispenser (Kalypsys). The final concentrations of substrates in the assay were 0.1 mM ADP and 0.5 mM PEP. Twenty-three nL of compound in DMSO were delivered with a 1,536-pin array tool, and 1 μL of enzyme mix in assay buffer (final concentration, 0.1 nM pyruvate kinase, 50 mM imidazole pH 7.2, 0.05% BSA, 4° C.) was added. Microtiter plates were incubated at r.t. for 1 hour and 2 uL of luciferase detection mix (Kinase-Glo from Promega, Madison, Wis., USA) at 4° C. protected from light, was added and luminescence was read with a ViewLux (Perkin Elmer, Waltham, Mass., USA) using a 2 second exposure/plate (with 2× binning). The final concentration of DMSO was 0.5% and found not to affect the assay signal.
Data was normalized for AC50 values to control columns containing uninhibited enzyme (n), and AC100 inhibition (i) according the following equation: Activation (%)=[(c−n)/(n−i)]*100 where c=compound, n=DMSO neutral, i=no enzyme control. A % activity of 100% is approximately a 2-fold increase over basal assay signal (% Activation by FBP was variable but averaged 100%). Monitoring of activation was accomplished using enzyme at 3× the final concentration.
All compounds were screened using a qHTS approach, where compounds are assayed using at least seven concentrations to generate concentration-response curves for every compounds. Briefly, qHTS uses an inter-plate dilution method where the first plate contains the highest concentration of a set of compounds in DMSO, while subsequent plates contain the same compounds in the same well locations, but at successive lower concentrations. Using the protocol outlined above, the rate was calculated as a plate throughput of 18 plates/hr or approximately 7 samples/sec on the Kalypsys robotic system which means that a 7 point CRC was obtained every second on the robotic system.

[1] = Table 2, 0.1 mM ADP, 0.5 mM PEP, mean of three replicate experiments, read-out: hPK, M2 AC50
[2] = Table 2, mean of three replicate experiments
[3] = Table 3, 0.1 mM ADP, 0.5 mM PEP, mean of three replicate experiments, read-out: hPK, M2 AC50
[4] = Table 3, mean of three replicate experiments
[5] = Table 4, maximum response (activation)
[6] = Table 4, 0.1 mM ADP, 0.5 mM PEP, read-out: AC50
[7] = Table 1, 0.1 mM ADP, 0.5 mM PEP, mean of three replicate experiments, read-out: hPK, M2 AC50
[8] = Table 1, mean of three replicate experiments

Chain of hPK, M2 (P14618 whole entry): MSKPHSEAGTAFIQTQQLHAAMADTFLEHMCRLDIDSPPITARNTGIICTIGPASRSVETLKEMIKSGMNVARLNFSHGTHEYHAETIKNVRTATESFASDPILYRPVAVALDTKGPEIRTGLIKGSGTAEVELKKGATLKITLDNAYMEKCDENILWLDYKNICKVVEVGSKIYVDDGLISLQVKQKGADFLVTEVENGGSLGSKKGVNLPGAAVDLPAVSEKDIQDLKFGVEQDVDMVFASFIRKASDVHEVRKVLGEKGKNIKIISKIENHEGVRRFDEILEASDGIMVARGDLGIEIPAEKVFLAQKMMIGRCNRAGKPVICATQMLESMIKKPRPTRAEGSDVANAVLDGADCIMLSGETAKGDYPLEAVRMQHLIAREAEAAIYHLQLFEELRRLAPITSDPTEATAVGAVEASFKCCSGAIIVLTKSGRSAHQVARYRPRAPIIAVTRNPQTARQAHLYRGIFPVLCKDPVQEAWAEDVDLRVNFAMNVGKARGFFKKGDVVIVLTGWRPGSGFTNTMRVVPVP

| AC50 [1] [nM] | activation at 57 µM [2] [%] | AC50 [6] [nM] | Emax [5] [%] | Compound | further results |
| --- | --- | --- | --- | --- | --- |
| 16000 | 86 | – | – | O=C1CCc2cc(S(=O)(=O)Nc3ccc4c(c3)OCCO4)ccc2N1 [Compound 29, N-(2,3-dihydrobenzo[b][1,4]dioxin-6-yl)-2-oxo-1,2,3,4-tetrahydroquinoline-6-sulfonamide] | – |
| 1800 | 93 | – | – | O=C1CCc2cc(S(=O)(=O)Nc3cccc(F)c3)ccc2N1 [Compound 16, N-(3-fluorophenyl)-2-oxo-1,2,3,4-tetrahydroquinoline-6-sulfonamide] | – |
| 4100 | 110 | – | – | Cc1ccc(NS(=O)(=O)c2ccc3c(c2)CCC(=O)N3)cc1 [Compound 21, 2-oxo-N-p-tolyl-1,2,3,4-tetrahydroquinoline-6-sulfonamide] | – |
| – | – | 90 | 111 | Cc1ccc(NS(=O)(=O)c2cc3c(cc2NCCO)NC(=O)CC3)cc1C [Compound 70, N-(3,4-dimethylphenyl)-7-(2-hydroxyethylamino)-2-oxo-1,2,3,4-tetrahydroquinoline-6-su 1 fonamide] | – |
| 2900 | 87 | – | – | O=C1CCc2cc(S(=O)(=O)Nc3ccc4ccccc4c3)ccc2N1 [Compound 27, N-(naphthalen-2-yl)-2-oxo-1,2,3,4-tetrahydroquinoline-6-sulfonamide] | – |
| – | – | 18300 | 112 | CC(=O)N1c2ccc(S(=O)(=O)Nc3ccc(C)c(C)c3)cc2CC1C (stereo not shown) [Compound 47, 1-acetyl-N-(3,4-dimethylphenyl)-2-methylindoline-5-sulfonamide] | – |
| 14000 | 25 | – | – | O=C1CCc2cc(S(=O)(=O)NCc3ccccc3)ccc2N1 [Compound 30, N-benzyl-2-oxo-1,2,3,4-tetrahydroquinoline-6-sulfonamide] | – |
| – | – | 2590 | 126 | O=C1CCc2cc(S(=O)(=O)Nc3ccc(Cl)c(Cl)c3)ccc2N1 [Compound 44, N-(3,4-dichlorophenyl)-2-oxo-1,2,3,4-tetrahydroquinoline-6-sulfonamide] | – |
| – | – | 110 | 110 | Cc1ccc(NS(=O)(=O)c2cc3c(cc2NC(C)CO)NC(=O)CC3)cc1C (stereo not shown) [Compound 67, N-(3,4-dimethylphenyl)-7-(1-hydroxypropan-2-ylamino)-2-oxo-1,2,3,4-tetrahydroquinoline-6-sulfonamide] | – |
| 21000 | 60 | – | – | COc1ccccc1NS(=O)(=O)c1ccc2c(c1)CCC(=O)N2 [Compound 25, N-(2-methoxyphenyl)-2-oxo-1,2,3,4-tetrahydroquinoline-6-sulfonamide] | – |
| 23000 | 36 | – | – | O=C1CCc2cc(S(=O)(=O)Nc3cccnc3)ccc2N1 [Compound 19, 2-oxo-N-(pyridin-3-yl)-1,2,3,4-tetrahydroquinoline-6-sulfonamide] | – |

Further lines, the molecule ahead of its results:

| Compound | AC50 [1] [nM] | activation at 57 µM [2] [%] | AC50 [6] [nM] | Emax [5] [%] | further results |
| --- | --- | --- | --- | --- | --- |
| O=C1CCc2cc(S(=O)(=O)Nc3cccc(C(F)(F)F)c3)ccc2N1 [Compound 17, 2-oxo-N-(3-(trifluoromethyl)phenyl)-1,2,3,4-tetrahydroquinoline-6-sulfonamide] | 13000 | 96 | – | – | – |
| O=C1CCc2cc(S(=O)(=O)Nc3ccc(Cl)cc3)ccc2N1 [Compound 20, N-(4-chlorophenyl)-2-oxo-1,2,3,4-tetrahydroquinoline-6-sulfonamide] | 3200 | 94 | – | – | – |
| Cc1ccc(NS(=O)(=O)c2cc3c(cc2Cl)NC(=O)CO3)cc1C [Compound 37, 6-chloro-N-(3,4-dimethylphenyl)-3-oxo-3,4-dihydro-2H-benzo[b][1,4]oxazine-7-sulfonamide] | – | – | – | – | AC50 [3]: 580 nM; activation at 57 µM [4]: 95% |
| Cc1ccc(NC(=O)c2ccc3c(c2)CCC(=O)N3)cc1C [Compound 42, N-(3,4-dimethylphenyl)-2-oxo-1,2,3,4-tetrahydroquinoline-6-carboxamide] | – | – | – | – | Max. Res. [5]: 5; AC50 (linkage variants of compound 4, read-out: AC50): 40000 nM; Emax (linkage variants of compound 4): 5% |
| Cc1ccc(NS(=O)(=O)c2cc3c(cc2NC(C)C)NC(=O)CC3)cc1C [Compound 65, N-(3,4-dimethylphenyl)-7-(isopropylamino)-2-oxo-1,2,3,4-tetrahydroquinoline-6-sulfonamide] | – | – | 320 | 106 | – |
| Cc1ccc(NS(=O)(=O)c2cc3c(cc2F)NC(=O)CC3)cc1C [Compound 31, N-(3,4-dimethylphenyl)-7-fluoro-2-oxo-1,2,3,4-tetrahydroquinoline-6-sulfonamide] | – | – | – | – | AC50 [3]: 920 nM; activation at 57 µM [4]: 115% |
| O=C1CCc2cc(S(=O)(=O)Nc3ccc(Cl)c(Cl)c3)c(F)cc2N1 [Compound 54, N-(3,4-dichlorophenyl)-7-fluoro-2-oxo-1,2,3,4-tetrahydroquinoline-6-sulfonamide] | – | – | 3660 | 109 | – |
| Cc1ccc(NS(=O)(=O)c2cc3c(cc2F)NC(=O)CC3)cc1Cl [Compound 51, N-(3-chloro-4-methylphenyl)-7-fluoro-2-oxo-1,2,3,4-tetrahydroquinoline-6-sulfonamide] | – | – | 120 | 102 | – |
| Cc1ccc(NS(=O)(=O)c2ccc3c(c2)n(C)c(=O)n3C)cc1C [Compound 10, N-(3,4-dimethylphenyl)-1,3-dimethyl-2-oxo-2,3-dihydro-1H-benzo[d]imidazole-5-sulfonamide] | – | – | – | – | AC50 [7]: 1800 nM; activation at 57 µM [8]: 100% |
| Cc1ccc(NS(=O)(=O)c2cc3c(cc2Cl)CCC(=O)N3)cc1C [Compound 35, 6-chloro-N-(3,4-dimethylphenyl)-2-oxo-1,2,3,4-tetrahydroquinoline-7-sulfonamide] | – | – | – | – | AC50 [3]: 260 nM; activation at 57 µM [4]: 104% |
| Cc1ccc(NS(=O)(=O)c2ccc3c(c2)CCC(=O)N3)cc1F [Compound 55, N-(3-fluoro-4-methylphenyl)-2-oxo-1,2,3,4-tetrahydroquinoline-6-sulfonamide] | – | – | 460 | 131 | – |
| Cc1ccc(Cl)cc1NS(=O)(=O)c1cc2c(cc1Cl)CCC(=O)N2 [Compound 45, 6-chloro-N-(5-chloro-2-methylphenyl)-2-oxo-1,2,3,4-tetrahydroquinoline-7-sulfonamide] | – | – | 2910 | 109 | – |
| Cc1cc(NS(=O)(=O)c2cc3c(cc2F)NC(=O)CC3)ccc1Cl [Compound 56, N-(4-chloro-3-methylphenyl)-7-fluoro-2-oxo-1,2,3,4-tetrahydroquinoline-6-sulfonamide] | – | – | 820 | 94.2 | – |
| Cc1c(Cl)cccc1NS(=O)(=O)c1cc2c(cc1F)NC(=O)CC2 [Compound 50, N-(3-chloro-2-methylphenyl)-7-fluoro-2-oxo-1,2,3,4-tetrahydroquinoline-6-sulfonamide] | – | – | 2590 | 118 | – |
| CNc1cc2c(cc1S(=O)(=O)Nc1ccc(C)c(C)c1)CCC(=O)N2 [Compound 33, N-(3,4-dimethylphenyl)-7-(methylamino)-2-oxo-1,2,3,4-tetrahydroquinoline-6-sulfonamide] | – | – | – | – | AC50 [3]: 160 nM; activation at 57 µM [4]: 53% |
| Cc1ccc(NS(=O)(=O)c2cc3c(cc2N(C)CCN(C)C)NC(=O)CC3)cc1C [Compound 61, 7-((2-(dimethylamino)ethyl)(methyl)amino)-N-(3,4-dimethylphenyl)-2-oxo-1,2,3,4-tetrahydroquinoline-6-sulfonamide] | – | – | 5840 | 70.5 | – |
| Cc1ccc(NS(=O)(=O)c2ccc3c(c2)CCCC(=O)N3)cc1C [Compound 6, N-(3,4-dimethylphenyl)-2-oxo-2,3,4,5-tetrahydro-1H-benzo[b]azepine-7-sulfonamide] | – | – | – | – | AC50 [7]: 18000 nM; activation at 57 µM [8]: 66% |
| Cc1ccc(NS(=O)(=O)c2cc3c(cc2N(C)C)CCC(=O)N3)cc1C [Compound 36, 6-(dimethylamino)-N-(3,4-dimethylphenyl)-2-oxo-1,2,3,4-tetrahydroquinoline-7-sulfonamide] | – | – | – | – | AC50 [3]: 460 nM; activation at 57 µM [4]: 110% |
| Cc1ccc(NS(=O)(=O)c2ccc3c(c2)CC(=O)N3)cc1C [Compound 5, N-(3,4-dimethylphenyl)-2-oxoindoline-5-sulfonamide] | – | – | – | – | AC50 [7]: 14500 nM; activation at 57 µM [8]: 130% |
